Measurements from ChEMBL document CHEMBL1201862, “PubChem BioAssay data set” (2004).
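Step 1: Grow cells in 96-well plates. Step 2: Expose to compound for 48 hours at 5 concentrations. Step 3: Interpolate endpoints linearly; if unreached, use highest concentration. GI50: concentration for 50% inhibition of growth.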 Active and inactive are the calls of the source. Rule as the data show it: active = GI50 up to about 1.1 µM and inactive = higher.

Key:
Test in all cases: inhibition of tumour cell growth, NCI panel, 48 h
[1] = system: HOP-18
[2] = system: U-251
[3] = system: UO-31
[4] = system: IGROV-1
[5] = system: CCRF-CEM
[6] = system: SK-MEL-5
[7] = system: OVCAR-3
[8] = system: SF-295
[9] = system: LOX IMVI
[10] = system: K562
[11] = system: RPMI-8226
[12] = system: HCT-15
[13] = system: TK-10
[14] = system: DMS-114
[15] = system: HOP-92
[16] = system: COLO 205
[17] = system: Malme-3M
[18] = system: A498
[19] = system: SNB-19
[20] = system: M19-MEL
[21] = system: KM-20L2
[22] = system: SK-OV-3
[23] = system: MOLT-4
[24] = system: SF-268
[25] = system: M14
[26] = system: HL-60
[27] = system: HOP-62
[28] = system: SNB-75
[29] = system: NCI-H226
[30] = system: DMS-273
[31] = system: SK-MEL-2
[32] = system: NCI-H522
[33] = system: SF-539
[34] = system: SK-MEL-28
[35] = system: ACHN
[36] = system: DLD-1
[37] = system: SNB-78
[38] = system: LXFL 529
[39] = system: OVCAR-8
[40] = system: EKVX
[41] = system: HCT-116
[42] = system: UACC-62
[43] = system: NCI-H23
[44] = system: HT-29
[45] = system: SN12C
[46] = system: SW-620
[47] = system: CAKI-1
[48] = system: XF498
[49] = system: NCI-H460
[50] = system: HCC 2998
[51] = system: OVCAR-4
[52] = system: RXF 393
[53] = system: SR
[54] = system: OVCAR-5
[55] = system: A549
[56] = system: KM12
[57] = system: UACC-257
[58] = system: 786-0

For `COc1ccc(/C(Cl)=C(\C=O)c2ccc(Cl)c(Cl)c2)cc1`, the GI50 [1] was 14.7 µM (inactive), the GI50 [2] was 5.66 µM (inactive) and the GI50 [3] was 12.8 µM (inactive). For the same compound, the GI50 [4] was 17 µM (inactive), the GI50 [5] was 2.96 µM (inactive) and the GI50 [6] was 13 µM (inactive). For the same compound, the GI50 [7] was 17.9 µM (inactive), the GI50 [8] was 9.12 µM (inactive) and the GI50 [9] was 3.72 µM (inactive). For the same compound, the GI50 [10] was 4.04 µM (inactive), the GI50 [11] was 2.56 µM (inactive) and the GI50 [12] was 4.6 µM. The GI50 [13] was 18 µM (inactive), the GI50 [14] was 4.06 µM (inactive) and the GI50 [15] was 6.07 µM (inactive). For the same compound, the GI50 [16] was 18.8 µM (inactive), the GI50 [17] was 16.1 µM (inactive) and the GI50 [18] was 20.4 µM (inactive). For the same compound, the GI50 [19] was 16.2 µM (inactive), the GI50 [20] was 13.1 µM (inactive) and the GI50 [21] was 11.7 µM (inactive). The GI50 [22] was 30.6 µM (inactive), the GI50 [23] was 2.6 µM (inactive) and the GI50 [24] was 5.3 µM (inactive). For the same compound, the GI50 [25] was 13.7 µM (inactive), the GI50 [26] was 4.12 µM (inactive) and the GI50 [27] was 13.3 µM (inactive). For the same compound, the GI50 [28] was 3.04 µM (inactive), the GI50 [29] was 13.2 µM (inactive) and the GI50 [30] was 13.1 µM (inactive). The GI50 [31] was 3.52 µM (inactive), the GI50 [32] was 2.51 µM (inactive) and the GI50 [33] was 10.2 µM (inactive). The GI50 [34] was 14.4 µM (inactive), the GI50 [35] was 7.26 µM (inactive) and the GI50 [36] was 10.7 µM (inactive). The GI50 [37] was 11 µM (inactive), the GI50 [38] was 5.81 µM (inactive) and the GI50 [39] was 5.57 µM (inactive). For the same compound, the GI50 [40] was 17.1 µM (inactive), the GI50 [41] was 3.83 µM (inactive) and the GI50 [42] was 8.2 µM (inactive). The GI50 [43] was 4.4 µM (inactive), the GI50 [44] was 4.37 µM (inactive) and the GI50 [45] was 7.1 µM (inactive). The GI50 [46] was 4.53 µM (inactive), the GI50 [47] was 9.12 µM (inactive) and the GI50 [48] was 10.8 µM (inactive). For the same compound, the GI50 [49] was 5.25 µM (inactive).
For `CCC(C)(O)c1cn(-c2ccc(Cl)cc2)nn1` (stereo not drawn), the GI50 [50] was > 100 µM (inactive), the GI50 [1] was > 100 µM (inactive) and the GI50 [2] was > 100 µM (inactive). The GI50 [3] was > 100 µM (inactive), the GI50 [4] was > 100 µM (inactive) and the GI50 [5] was > 100 µM (inactive). For the same compound, the GI50 [6] was > 100 µM (inactive), the GI50 [7] was > 100 µM (inactive) and the GI50 [8] was > 100 µM (inactive). For the same compound, the GI50 [9] was > 100 µM (inactive), the GI50 [10] was > 100 µM (inactive) and the GI50 [11] was > 100 µM (inactive). The GI50 [12] was greater than 100 µM, the GI50 [13] was > 100 µM (inactive) and the GI50 [15] was > 100 µM (inactive). For the same compound, the GI50 [16] was > 100 µM (inactive), the GI50 [51] was > 100 µM (inactive) and the GI50 [52] was > 100 µM (inactive). The GI50 [17] was > 100 µM (inactive), the GI50 [18] was > 100 µM (inactive) and the GI50 [53] was > 100 µM (inactive). The GI50 [19] was > 100 µM (inactive), the GI50 [20] was > 100 µM (inactive) and the GI50 [21] was > 100 µM (inactive). For the same compound, the GI50 [22] was > 100 µM (inactive), the GI50 [54] was > 100 µM (inactive) and the GI50 [23] was > 100 µM (inactive). The GI50 [55] was > 100 µM (inactive), the GI50 [24] was > 100 µM (inactive) and the GI50 [25] was > 100 µM (inactive). For the same compound, the GI50 [26] was > 100 µM (inactive), the GI50 [27] was > 100 µM (inactive) and the GI50 [56] was > 100 µM (inactive). For the same compound, the GI50 [28] was > 100 µM (inactive), the GI50 [29] was > 100 µM (inactive) and the GI50 [30] was > 100 µM (inactive). The GI50 [31] was > 100 µM (inactive), the GI50 [32] was > 100 µM (inactive) and the GI50 [33] was > 100 µM (inactive). The GI50 [34] was > 100 µM (inactive), the GI50 [35] was > 100 µM (inactive) and the GI50 [36] was > 100 µM (inactive). The GI50 [37] was > 100 µM (inactive), the GI50 [57] was > 100 µM (inactive) and the GI50 [38] was > 100 µM (inactive). For the same compound, the GI50 [39] was > 100 µM (inactive), the GI50 [40] was > 100 µM (inactive) and the GI50 [41] was > 100 µM (inactive). The GI50 [42] was > 100 µM (inactive), the GI50 [43] was > 100 µM (inactive) and the GI50 [44] was > 100 µM (inactive). For the same compound, the GI50 [45] was > 100 µM (inactive), the GI50 [46] was > 100 µM (inactive) and the GI50 [47] was > 100 µM (inactive). The GI50 [49] was > 100 µM (inactive) and the GI50 [58] was > 100 µM (inactive).
`COc1ccc(NC(=O)CC/C(CC(=O)c2ccco2)=N/NC(=O)C(N)=O)cc1` was tested, and the GI50 [50] was > 100 µM (inactive), the GI50 [1] was > 100 µM (inactive) and the GI50 [3] was > 100 µM (inactive). The GI50 [4] was > 100 µM (inactive), the GI50 [5] was 63.5 µM (inactive) and the GI50 [6] was 27.4 µM (inactive). The GI50 [7] was 46 µM (inactive), the GI50 [8] was > 100 µM (inactive) and the GI50 [9] was > 100 µM (inactive). For the same compound, the GI50 [10] was 28.1 µM (inactive), the GI50 [11] was 33.8 µM (inactive) and the GI50 [12] was greater than 100 µM. The GI50 [13] was > 100 µM (inactive), the GI50 [14] was 35.2 µM (inactive) and the GI50 [16] was > 100 µM (inactive). The GI50 [51] was > 100 µM (inactive), the GI50 [52] was 61.9 µM (inactive) and the GI50 [17] was 98.9 µM (inactive). The GI50 [18] was 76.4 µM (inactive), the GI50 [19] was 56.8 µM (inactive) and the GI50 [20] was 74.6 µM (inactive). For the same compound, the GI50 [21] was > 100 µM (inactive), the GI50 [22] was > 100 µM (inactive) and the GI50 [54] was > 100 µM (inactive). The GI50 [23] was 46.9 µM (inactive), the GI50 [55] was > 100 µM (inactive) and the GI50 [24] was 68.9 µM (inactive). The GI50 [25] was > 100 µM (inactive), the GI50 [26] was 36 µM (inactive) and the GI50 [27] was > 100 µM (inactive). The GI50 [56] was > 100 µM (inactive), the GI50 [28] was 97.5 µM (inactive) and the GI50 [29] was > 100 µM (inactive). For the same compound, the GI50 [30] was > 100 µM (inactive), the GI50 [31] was > 100 µM (inactive) and the GI50 [32] was 53 µM (inactive). The GI50 [33] was > 100 µM (inactive), the GI50 [34] was 91.2 µM (inactive) and the GI50 [35] was > 100 µM (inactive). For the same compound, the GI50 [36] was > 100 µM (inactive), the GI50 [57] was 54.5 µM (inactive) and the GI50 [38] was 65.5 µM (inactive). For the same compound, the GI50 [39] was > 100 µM (inactive), the GI50 [40] was > 100 µM (inactive) and the GI50 [42] was > 100 µM (inactive). The GI50 [43] was 38.3 µM (inactive), the GI50 [44] was > 100 µM (inactive) and the GI50 [45] was > 100 µM (inactive). For the same compound, the GI50 [46] was > 100 µM (inactive), the GI50 [47] was > 100 µM (inactive) and the GI50 [48] was 82.8 µM (inactive). The GI50 [49] was > 100 µM (inactive) and the GI50 [58] was > 100 µM (inactive).
